Source: ChEMBL document CHEMBL5724696, “Autophagy assay results for EUbOPEN Chemogenomics Library” (2024)
“And” between values parts separate entries of the source, which are not always exact repeats. Equal entries are not always repeated.

How the values were obtained:
Format in all cases: functional, Homo sapiens
U2OS [1] = assay: (§1) Here: values are normalized to the positive (DMSO; basel flux = defined as 100% suppression) and negative (250nM Torin1; mTOR inhibitor; maximal inducer of autophagy defined as 0% suppression) control compounds and represented as % of ER-phagy suppression. […] The impact of autophagy induction on cells is complex and depends on the affected target. […] Of note, treatment concentrations may be sub-optimal for specific compounds, leading to false negative annotations.; conditions: Compound Concentration 1 uM, Culturing Media DMEM, 1 % Penicillin/Streptomycin, 10% Fetal bovin serum Add-On: blasticidin, Screening Media Control DMEM, 10% Fetal bovin serum Add-On: 1 µg/ml Doxycyclin, Screening Media Samples DMEM, 10% Fetal bovin serum Add-On: 1 µg/ml Doxycyclin 250nM Torin1
U2OS [2] = assay: as §1; conditions: Compound Concentration 1 uM, Culturing Media DMEM, 1 % Penicillin/Streptomycin, 10% Fetal bovin serum Add-On: blasticidin, Screening Media Control DMEM, 10% Fetal bovin serum Add-On: 1 µg/ml Doxycyclin, Screening Media Samples DMEM, 10% Fetal bovin serum Add-On: 1 µg/ml Doxycyclin 250nM Torin1; remark: listed apart in the source
U2OS [3] = assay: (§2) Here: values are normalized to the negative (DMSO; defined as 0% autophagy induction) and positive (250nM Torin1; mTOR inhibitor; defined as maximal inducer of autophagy = 100%) control compounds and represented as % of autophagy induction. […] The impact of autophagy induction on cells is complex and depends on the affected target. As such, the magnitude of a phenotype may not be equally mirrored in the %-value of autophagy induction and vice versa. The dynamics of the induction may indicate the mode of activation: e.g. activation via phosphorylation or a signaling cascade may occur fast, while activation via transcription factors may take considerably longer. […] Of note, treatment concentrations may be sub-optimal for specific compounds, leading to false negative annotations.; conditions: Culturing Media DMEM, 1 % Penicillin/Streptomycin, 10% Fetal bovin serum Add-On: No, Screening Media Control DMEM, Screening Media Samples DMEM
TERT-RPE1 = assay: as §2; conditions: Culturing Media DMEM/F12 (1:1), 1 % Penicillin/Streptomycin, 10% Fetal bovin serum Add-On: No, Screening Media Control DMEM/F12 (1:1), Screening Media Samples DMEM/F12 (1:1)
U2OS [4] = assay: as §2; conditions: Culturing Media DMEM, 1 % Penicillin/Streptomycin, 10% Fetal bovin serum Add-On: No, Screening Media Control DMEM, Screening Media Samples DMEM; remark: listed apart in the source
[5] = Compound Concentration 0.5 uM, Timepoint 12 hours
[6] = Compound Concentration 0.5 uM, Timepoint 24 hours
[7] = Compound Concentration 0.5 uM, Timepoint 36 hours
[8] = Compound Concentration 0.5 uM, Timepoint 60 hours
[9] = Compound Concentration 2 uM, Timepoint 12 hours
[10] = Compound Concentration 2 uM, Timepoint 24 hours
[11] = Compound Concentration 2 uM, Timepoint 36 hours
[12] = Compound Concentration 2 uM, Timepoint 60 hours
[13] = Compound Concentration 10 uM, Timepoint 12 hours
[14] = Compound Concentration 10 uM, Timepoint 24 hours
[15] = Compound Concentration 10 uM, Timepoint 36 hours
[16] = Compound Concentration 10 uM, Timepoint 60 hours

SMILES: CCOc1cn(-c2ccc(F)cc2C)nc1C(=O)Nc1ccc(Oc2ccnc3cc(OC)c(OC)cc23)c(F)c1
- ER-phagy suppression (U2OS [1]; Timepoint 12 hours): 8.613%
- ER-phagy suppression (U2OS [1]; Timepoint 24 hours): -11.0646%
- ER-phagy suppression (U2OS [1]; Timepoint 36 hours): -14.9155%
- ER-phagy suppression (U2OS [1]; Timepoint 54 hours): -19.0742%
- ER-phagy suppression (U2OS [2]; Timepoint 12 hours): 7.441%
- ER-phagy suppression (U2OS [2]; Timepoint 24 hours): -3.201%
- ER-phagy suppression (U2OS [2]; Timepoint 36 hours): 13.658%
- ER-phagy suppression (U2OS [2]; Timepoint 60 hours): 1.882%

SMILES: O=C(NCCCN1CCOC1=O)c1cnc(NCc2cc(Br)ccc2Br)nc1NC1CCCC1
- ER-phagy suppression (U2OS [1]; Timepoint 12 hours): -5.816%
- ER-phagy suppression (U2OS [1]; Timepoint 24 hours): -18.1911%
- ER-phagy suppression (U2OS [1]; Timepoint 36 hours): -20.9165%
- ER-phagy suppression (U2OS [1]; Timepoint 54 hours): -12.0292%
- ER-phagy suppression (U2OS [2]; Timepoint 12 hours): -10.749%
- ER-phagy suppression (U2OS [2]; Timepoint 24 hours): -21.0292%
- ER-phagy suppression (U2OS [2]; Timepoint 36 hours): -39.1494%
- ER-phagy suppression (U2OS [2]; Timepoint 60 hours): -40.5418%

SMILES: CC(C)NC(=O)N1CC[C@H](NC2=Nc3cc(F)ccc3N(CC(F)F)c3ccc(Cl)cc32)C1
- ER-phagy suppression (U2OS [1]; Timepoint 12 hours): -34.3378%
- ER-phagy suppression (U2OS [1]; Timepoint 24 hours): -42.165%
- ER-phagy suppression (U2OS [1]; Timepoint 36 hours): -48.481%
- ER-phagy suppression (U2OS [1]; Timepoint 54 hours): -44.6081%
- ER-phagy suppression (U2OS [2]; Timepoint 12 hours): -0.3952%
- ER-phagy suppression (U2OS [2]; Timepoint 24 hours): -5.126%
- ER-phagy suppression (U2OS [2]; Timepoint 36 hours): -3.1%
- ER-phagy suppression (U2OS [2]; Timepoint 60 hours): -4.344%

SMILES: Cc1c(C(=O)Nc2ccc(Oc3ccnc4[nH]cc(-c5ccccc5)c34)c(F)c2)c(=O)n(-c2ccc(F)cc2)n1C
- ER-phagy suppression (U2OS [1]; Timepoint 12 hours): 3.929%
- ER-phagy suppression (U2OS [1]; Timepoint 24 hours): -12.4432%
- ER-phagy suppression (U2OS [1]; Timepoint 36 hours): -17.5101%
- ER-phagy suppression (U2OS [1]; Timepoint 54 hours): -17.0737%
- ER-phagy suppression (U2OS [2]; Timepoint 12 hours): 11.6236%
- ER-phagy suppression (U2OS [2]; Timepoint 24 hours): -15.4691%
- ER-phagy suppression (U2OS [2]; Timepoint 36 hours): -3.07%
- ER-phagy suppression (U2OS [2]; Timepoint 60 hours): -1.46%

SMILES: Cn1cc(C2=C(c3cn(C4CCN(Cc5ccccn5)CC4)c4ccccc34)C(=O)NC2=O)c2ccccc21 [ENZASTAURIN]
- ER-phagy suppression (U2OS [1]; Timepoint 12 hours): 5.0599%
- ER-phagy suppression (U2OS [1]; Timepoint 24 hours): -2.39%
- ER-phagy suppression (U2OS [1]; Timepoint 36 hours): -11.3748%
- ER-phagy suppression (U2OS [1]; Timepoint 54 hours): -3.56%
- ER-phagy suppression (U2OS [2]; Timepoint 12 hours): 35.0144%
- ER-phagy suppression (U2OS [2]; Timepoint 24 hours): 19.4915%
- ER-phagy suppression (U2OS [2]; Timepoint 36 hours): 15.6229%
- ER-phagy suppression (U2OS [2]; Timepoint 60 hours): 9.495%

SMILES: Cc1ccc(-c2ccc3c(ccc4sc5c(c43)NC[C@@H](C)NC5=O)n2)cn1
- ER-phagy suppression (U2OS [1]; Timepoint 12 hours): -17.2516%
- ER-phagy suppression (U2OS [1]; Timepoint 24 hours): -0.875%
- ER-phagy suppression (U2OS [1]; Timepoint 36 hours): 6.096%
- ER-phagy suppression (U2OS [1]; Timepoint 54 hours): 19.149%
- ER-phagy suppression (U2OS [2]; Timepoint 12 hours): 5.336%
- ER-phagy suppression (U2OS [2]; Timepoint 24 hours): 5.52%
- ER-phagy suppression (U2OS [2]; Timepoint 36 hours): 7.693%
- ER-phagy suppression (U2OS [2]; Timepoint 60 hours): 5.525%

SMILES: Cl.Cl.Nc1nccc(-c2c(-c3ccc(F)cc3)ncn2C2CCCCC2)n1
- ER-phagy suppression (U2OS [1]; Timepoint 12 hours): 12.007%
- ER-phagy suppression (U2OS [1]; Timepoint 24 hours): 14.1245%
- ER-phagy suppression (U2OS [1]; Timepoint 36 hours): 19.9643%
- ER-phagy suppression (U2OS [1]; Timepoint 54 hours): 25.2011%

SMILES: CCC(=O)N1CCN(c2ccc(-n3c(=O)ccc4cnc5ccc(-c6cnc7ccccc7c6)cc5c43)cc2C(F)(F)F)CC1 [TORIN1]
- ER-phagy suppression (U2OS [1]; Timepoint 12 hours): 3.915%
- ER-phagy suppression (U2OS [1]; Timepoint 24 hours): -7.7479%
- ER-phagy suppression (U2OS [1]; Timepoint 36 hours): -6.712%
- ER-phagy suppression (U2OS [1]; Timepoint 54 hours): -3.9465%

SMILES: FC(F)(F)c1c(N2CCC(c3ccccc3)CC2)ccn2c(CC3CC3)nnc12
- autophagy induction (U2OS [3]; [5]): 6.212%
- autophagy induction (U2OS [3]; [6]): 3.779%
- autophagy induction (U2OS [3]; [7]): -3.086%
- autophagy induction (U2OS [3]; [8]): -2.905%
- autophagy induction (U2OS [3]; [9]): -8.584%
- autophagy induction (U2OS [3]; [10]): -5.642%
- autophagy induction (U2OS [3]; [11]): -3.294%
- autophagy induction (U2OS [3]; [12]): -4.323%
- autophagy induction (U2OS [3]; [13]): -9.128%
- autophagy induction (U2OS [3]; [14]): -9.508%
- autophagy induction (U2OS [3]; [15]): -1.15%
- autophagy induction (U2OS [3]; [16]): -1.079%
- autophagy induction (TERT-RPE1; Compound Concentration 0.5 uM, Timepoint 12 hours, 12 h, 0.5 µM): 0.8285% and 1.833%
- autophagy induction (TERT-RPE1; Compound Concentration 0.5 uM, Timepoint 24 hours, 24 h, 0.5 µM): -1.6355% and 0.4371%
- autophagy induction (TERT-RPE1; Compound Concentration 0.5 uM, Timepoint 36 hours, 36 h, 0.5 µM): -2.42% and 3.239%
- autophagy induction (TERT-RPE1; Compound Concentration 0.5 uM, Timepoint 60 hours, 60 h, 0.5 µM): -6.544% and 5.154%
- autophagy induction (TERT-RPE1; Compound Concentration 2 uM, Timepoint 12 hours, 12 h, 2 µM): -0.736% and 6.309%
- autophagy induction (TERT-RPE1; Compound Concentration 2 uM, Timepoint 24 hours, 24 h, 2 µM): -0.3973% and 6.29%
- autophagy induction (TERT-RPE1; Compound Concentration 2 uM, Timepoint 36 hours, 36 h, 2 µM): -4.125% and 5.099%
- autophagy induction (TERT-RPE1; Compound Concentration 2 uM, Timepoint 60 hours, 60 h, 2 µM): -2.871% and 7.601%
- autophagy induction (TERT-RPE1; Compound Concentration 10 uM, Timepoint 12 hours, 12 h, 10 µM): 0.02052% and 7.4327%
- autophagy induction (TERT-RPE1; Compound Concentration 10 uM, Timepoint 24 hours, 24 h, 10 µM): -1.251% and 7.807%
- autophagy induction (TERT-RPE1; Compound Concentration 10 uM, Timepoint 36 hours, 36 h, 10 µM): -2.896% and 10.4333%
- autophagy induction (TERT-RPE1; Compound Concentration 10 uM, Timepoint 60 hours, 60 h, 10 µM): -4.9464% and 19.419%
- autophagy induction (U2OS [4]; [5]): -3.682%
- autophagy induction (U2OS [4]; [6]): -3.457%
- autophagy induction (U2OS [4]; [7]): 1345.14%
- autophagy induction (U2OS [4]; [8]): -2.1724%
- autophagy induction (U2OS [4]; [9]): -2.443%
- autophagy induction (U2OS [4]; [10]): -4.21%
- autophagy induction (U2OS [4]; [11]): -60.9304%
- autophagy induction (U2OS [4]; [12]): -2.478%
- autophagy induction (U2OS [4]; [13]): 1.237%
- autophagy induction (U2OS [4]; [14]): -0.8788%
- autophagy induction (U2OS [4]; [15]): -59.5065%
- autophagy induction (U2OS [4]; [16]): -0.8045%
